Source: patent publication US5250554A, “Benzimidazole derivatives useful as angiotensin II inhibitors” (Takeda Chemical Industries, Ltd., priority 1989, dated 1993)

Key:
A-II receptor = target: T1, A-II receptor (Bos taurus, UniProt P25104); assay: Inhibition of binding of angiotensin-II to angiotensin receptor (radioreceptor assay, 125I-A-II); design: species or system bovine (membrane fraction of bovine adrenal cortex); conditions: bovine adrenal cortex membrane, 125I-A-II, 1 h room temperature; for inhibition at 10 µM: 1 × 10^-5 M, read-out: Radioreceptor assay, inhibition of A-II binding, 1 × 10^-5 M; for inhibition at 1 µM: 1 × 10^-6 M, read-out: Radioreceptor assay, inhibition of A-II binding, 1 × 10^-6 M
T1 construct: An A-II receptor was prepared from the membrane fraction of bovine adrenal cortex; from tissue; host or cells: bovine adrenal cortex, membrane fraction
T1 sequence (P25104 1-359): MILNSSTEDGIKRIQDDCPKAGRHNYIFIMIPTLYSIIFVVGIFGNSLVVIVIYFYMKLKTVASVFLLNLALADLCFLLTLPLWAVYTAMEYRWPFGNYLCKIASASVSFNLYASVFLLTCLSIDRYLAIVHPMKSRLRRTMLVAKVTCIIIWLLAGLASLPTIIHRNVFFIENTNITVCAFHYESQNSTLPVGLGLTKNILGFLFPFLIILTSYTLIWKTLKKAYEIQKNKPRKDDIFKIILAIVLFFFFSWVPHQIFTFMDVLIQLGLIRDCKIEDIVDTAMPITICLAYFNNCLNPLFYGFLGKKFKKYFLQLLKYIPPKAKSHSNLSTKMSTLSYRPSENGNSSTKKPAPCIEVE
Protocol: Inhibition of binding of angiotensin-II to angiotensin receptor
An A-II receptor was prepared from the membrane fraction of bovine adrenal cortex.

pressor action of A-II = assay: Inhibitory effect on pressor action of A-II (oral drug, i.v. A-II 100 ng/kg); format: in vivo, Jcl:SD rats (9 week old, male); conditions: Rattus norvegicus, po, rats, A-II 100 ng/kg i.v.; for inhibition in vivo at 30 mg/kg: 30 mg/kg p.o., read-out: Pressor response to A II (p.o.), 30 mg/kg (percent inhibition); for inhibition in vivo at 3 mg/kg: 3 mg/kg p.o., read-out: Pressor response to A II (p.o.), 3 mg/kg (percent inhibition)
From the text: Inhibitory effect of the compound of this invention on pressor action of A-II
Jcl:SD rats (9 week old, male) were used. On the day prior to that of the experiment, these animals were applied with cannulation into the femoral artery and vein under anesthesia with pentobarbital Na. The animals were fasted but allowed free access to drinking water until the experiment was started. On the day of conducting the experiment, the artery cannula was connected with a blood-pressure transducer, and the average blood pressure was recorded by means of polygraph. […] The drugs were orally administered, and then, at each point of the measurement, A-II was administered intravenously, and the pressor action was similarly measured. By comparing the pressor action before and after administration of the drug, the percent inhibition by the drug on A-II-induced pressor action was evaluated.

angiotensin II = conditions: as reported; cited from earlier work

## CCCCc1nc2ccc(Cl)cc2n1Cc1ccc(-c2ccccc2-c2nn[nH]n2)cc1 [compound 21, 2-Butyl-6-chloro-1-[[2,-(1H-tetrazol-5-yl)biphenyl-4-yl]methyl]benzimidazol, reference compound]
A-II receptor
  inhibition at 10 µM: 79%
  inhibition at 1 µM: 22%
Pressor action of A-II
  inhibition in vivo at 30 mg/kg: < 30%

## CCCCc1nc2c(C(N)=O)cccc2n1Cc1ccc(-c2ccccc2-c2nnn[nH]2)cc1 [compound 30, 2-Butyl-1-[[2'-(1H-tetrazol-5-yl)biphenyl-4-yl]methyl]benzimidazole-4-carboxamide, reference compound]
A-II receptor
  inhibition at 10 µM: 40%
  inhibition at 1 µM: 1%
Pressor action of A-II
  inhibition in vivo at 3 mg/kg: < 30%
  inhibition in vivo at 30 mg/kg: < 30%

## CCCCc1nc2cc(C(=O)O)ccc2n1Cc1ccc(-c2ccccc2-c2nnn[nH]2)cc1 [compound 44, 2-Butyl-1-[[2'-(1H-tetrazol-5-yl)biphenyl-4-yl]methyl]benzimidazole-5-carboxylic acid, reference compound]
A-II receptor
  inhibition at 10 µM: 66%
  inhibition at 1 µM: 13%
Pressor action of A-II
  inhibition in vivo at 3 mg/kg: < 30%

## CCCCc1nc2ccc(C(=O)OC)cc2n1Cc1ccc(-c2ccccc2-c2nnn[nH]2)cc1 [compound 49, Methyl 2-butyl-1-[[2'-(1H-tetrazol-5-yl)biphenyl-4-yl]methyl]benzimidazole-6-carboxylate, reference compound]
A-II receptor
  inhibition at 10 µM: 94%
  inhibition at 1 µM: 77%
Pressor action of A-II
  inhibition in vivo at 3 mg/kg: < 30%
  inhibition in vivo at 30 mg/kg: < 30%

## CCCCc1nc2ccc(C(=O)O)cc2n1Cc1ccc(-c2ccccc2-c2nn[nH]n2)cc1 [compound 50, reference compound]
A-II receptor
  inhibition at 10 µM: 53%
  inhibition at 1 µM: 7%
Pressor action of A-II
  inhibition in vivo at 3 mg/kg: < 30%
  inhibition in vivo at 30 mg/kg: < 30%

## CNCC(=O)N[C@@H](CCCN=C(N)N)C(=O)N[C@H](C(=O)N[C@@H](Cc1ccc(O)cc1)C(=O)N[C@H](C(=O)N[C@@H](Cc1cnc[nH]1)C(=O)N1CCC[C@H]1C(=O)N[C@@H](C)C(=O)O)C(C)C)C(C)C [saralasin]
Angiotensin II
  angiotensin II antagonism: potent angiotensin II antagonism

## [Sar^1, Ala^8 ]AII
Angiotensin II
  angiotensin II antagonism: potent angiotensin II antagonism
